Laboratory results from US8414885B2, “Methods and compositions for treating cancer” (priority 2009, dated 2013).
Peptide text beside a SMILES is read from it. * marks the point of attachment. Cbz = O=C(OCc1ccccc1)*; CH2F = FC*

Test system: melanoma cultures (A2058, MeWo, SM, A375)
Experiment: Virus growth by plaque assay (burst size) in melanoma cultures
Assay type: cell-based, human
Conditions: delta-PK infected melanoma cultures
Experimental: FIG. 3. Delta-PK is a growth-restricted replication competent oncolytic virus. A. Vero cells were infected with HSV-2, delta-PK, or HSV-2(R) (moi=0.5) in serum-free medium and virus titers were determined by plaque assay. Results are expressed as mean pfu/cell (burst size). B. A2058, MeWo, SM, A375 and Wi-38 cells were infected with delta PK and examined for virus growth. […] C. Delta-PK infected A2058 and WI-38, cells were stained with Alexafluor-488 labeled ICP10 and Alexafluor-594 labeled VP5 antibodies in double immunofluorescence. Cells were counted in 3 randomly selected fields (≧250 cells) and the % staining cells calculated relative to total cells identified by DAPI staining. Quantitative results are shown for A2058 cell at 4-72 hrs p.i., and for WI-38 cells at 48 hrs p.i. Similar results were obtained for the partially purified virus.
To measure virus replication in culture, cells were infected at a multiplicity of infection (moi) of 0.5 pfu/cell. Adsorption was for 1 hr at 4 degrees C. (synchronized infection). […] Virus titers were determined by plaque assay on Vero cells and the results are expressed as mean pfu/cell (burst size), as described (Li B, Smith C C, Laing J M, Gober M D, Liu L, Aurelian L. Overload of the heat-shock protein H11/HspB8 triggers melanoma cell apoptosis through activation of transforming growth factor-beta-activated kinase 1. Oncogene 2007; 26: 3521-3531). […]

Compound	effect of inhibitor on virus growth
O=C(O)/C(S)=C/c1ccc(I)cc1 [PD150606]	neither PD150606, nor z-VAD-fmk had any effect
COC(=O)C[C@H](NC(=O)[C@H](C)NC(=O)[C@@H](NC(=O)OCc1ccccc1)C(C)C)C(=O)CF [z-VAD-fmk, benzyloxcarbonyl-Val-Ala-Asp-fluormethyl ketone] (Cbz-Val-Ala-Asp(OMe)-CH2F)	neither PD150606, nor z-VAD-fmk had any effect
